What was measured:
[1] = biological target: Recombinant human c-KIT kinase (Homo sapiens (Human), UniProt P10721); experiment: c-KIT kinase chemiluminescence assay (ADP-Glo); format: biochemical; conditions: ATP 50 μM
How it was run: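 ADP formed by c-KIT on polyEY over 2 h at RT (after 30 min enzyme preincubation; Tris pH 7.5, MgCl2, BSA, DTT buffer) was detected by ADP-Glo luminescence. IC50 and Hill slope were fitted to control-normalized activity across compound concentrations.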

M-07e cells = experiment: M-07e cellular assay (SCF-mediated cell proliferation); format: cell-based; conditions: Homo sapiens, 72 hours, CellTiter Glo
How it was run: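 Readout came from CellTiter Glo after 72 h of compound treatment in SCF (EC90)-stimulated, pre-starved M-07e cells at 37 °C.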

Sequence of Recombinant human c-KIT kinase (P10721 26-976): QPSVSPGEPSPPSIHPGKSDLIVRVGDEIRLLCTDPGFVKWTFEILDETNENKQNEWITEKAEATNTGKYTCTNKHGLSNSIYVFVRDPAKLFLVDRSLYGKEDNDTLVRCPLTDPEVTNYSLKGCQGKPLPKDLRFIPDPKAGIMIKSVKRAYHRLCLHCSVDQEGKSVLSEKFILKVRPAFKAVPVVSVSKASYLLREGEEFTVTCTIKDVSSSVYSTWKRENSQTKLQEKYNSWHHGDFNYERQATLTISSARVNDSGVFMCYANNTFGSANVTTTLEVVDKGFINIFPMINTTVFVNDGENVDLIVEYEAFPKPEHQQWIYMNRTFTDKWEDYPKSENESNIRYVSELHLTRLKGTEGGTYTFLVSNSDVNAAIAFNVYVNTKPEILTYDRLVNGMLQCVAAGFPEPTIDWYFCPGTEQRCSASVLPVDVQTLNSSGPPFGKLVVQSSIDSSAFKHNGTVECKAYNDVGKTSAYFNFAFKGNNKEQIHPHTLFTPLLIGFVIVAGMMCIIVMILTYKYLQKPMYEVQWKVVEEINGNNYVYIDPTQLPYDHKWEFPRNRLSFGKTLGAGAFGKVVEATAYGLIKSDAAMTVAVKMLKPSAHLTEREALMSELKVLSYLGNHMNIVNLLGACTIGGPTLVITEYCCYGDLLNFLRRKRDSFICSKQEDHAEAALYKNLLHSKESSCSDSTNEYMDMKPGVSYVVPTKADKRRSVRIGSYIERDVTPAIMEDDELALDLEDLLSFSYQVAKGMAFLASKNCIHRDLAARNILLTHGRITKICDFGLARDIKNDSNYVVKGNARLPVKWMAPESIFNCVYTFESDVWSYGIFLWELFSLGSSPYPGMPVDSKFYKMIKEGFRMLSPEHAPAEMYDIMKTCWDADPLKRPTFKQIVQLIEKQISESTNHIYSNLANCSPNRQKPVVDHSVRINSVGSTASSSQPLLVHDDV

Row | Structure (SMILES) | IC50 [1] [nM] | EC50 (M-07e cells) [nM]
1 | Cc1ccc(-c2noc([C@H]3C[C@@H]3F)n2)cc1NC(=O)c1cnn2ccc(N3CC4CC3C4(C)C)cc12 (stereo partly shown) [Example 228] | < 100 | 100 to 1000
2 | Cc1ccc(-c2noc([C@H]3C[C@@H]3F)n2)cc1NC(=O)c1cnn2ccc(N3CCN(CC(F)(F)F)[C@H](C)C3)cc12 [Example 230] | < 100 | < 100
3 | Cc1ccc(-c2noc([C@H]3C[C@@H]3F)n2)cc1NC(=O)c1cnn2ccc(N3CC4(CC(=O)C4)C3)cc12 [Example 231] | < 100 | < 100
4 | Cc1ccc(-c2noc([C@H]3C[C@@H]3F)n2)cc1NC(=O)c1cnn2ccc(N3CC4(C3)CC(O)(C(F)F)C4)cc12 [Example 232] | < 100 | < 100
5 | Cc1ccc(-c2noc([C@H]3C[C@@H]3F)n2)cc1NC(=O)c1cnn2ccc(N3CC4(C3)CC(O)(C(F)(F)F)C4)cc12 [Example 233] | < 100 | < 100
6 | CC(=O)N1CCN(c2ccn3ncc(C(=O)Nc4cc(-c5noc([C@H]6C[C@@H]6F)n5)ccc4C)c3c2)C[C@H]1C [Example 234] | < 100 | < 100
7 | Cc1ccc(-c2noc([C@H]3C[C@@H]3F)n2)cc1NC(=O)c1cnn2ccc(N3CC4(CCN4C(=O)OC(C)(C)C)C3)cc12 [Example 235] | > 1000 | > 1000
8 | Cc1ccc(-c2noc([C@H]3C[C@@H]3F)n2)cc1NC(=O)c1cnn2ccc(-n3cc(NC(=O)OC(C)(C)C)cn3)cc12 [Example 236] | 100 to 1000 | 100 to 1000
9 | Cc1ccc(-c2noc([C@H]3C[C@@H]3F)n2)cc1NC(=O)c1cnn2ccc(-n3cc(N)cn3)cc12 [Example 237] | < 100 | 100 to 1000
10 | Cc1ccc(-c2noc([C@H]3C[C@@H]3F)n2)cc1NC(=O)c1cnn2ccc(Nc3cn[nH]c3)cc12 [Example 238] | < 100 | < 100
11 | Cc1ccc(-c2noc([C@H]3C[C@@H]3F)n2)cc1NC(=O)c1cnn2ccc(N3CC4(CCN4)C3)cc12 [Example 239] | < 100 | 100 to 1000
12 | CCC1(O)CC2(CN(c3ccn4ncc(C(=O)Nc5cc(-c6noc([C@H]7C[C@@H]7F)n6)ccc5C)c4c3)C2)C1 [Example 240] | < 100 | < 100
13 | Cc1ccc(-c2noc([C@H]3C[C@@H]3F)n2)cc1NC(=O)c1cnn2ccc(N3CC4(C3)CN(S(C)(=O)=O)C4)cc12 [Example 241-1] | < 100 | < 100
14 | Cc1ccc(-c2noc([C@H]3C[C@@H]3F)n2)cc1NC(=O)c1cnn2ccc(N3CC4(COC(C)(C)OC4)C3)cc12 [Example 241-2] | < 100 | > 1000
15 | Cc1ccc(-c2noc([C@H]3C[C@@H]3F)n2)cc1NC(=O)c1cnn2ccc(N3CC(CO)(CO)C3)cc12 [Example 241-3] | < 100 | < 100
16 | Cc1ccc(-c2noc([C@H]3C[C@@H]3F)n2)cc1NC(=O)c1cnn2ccc(N3CCN(C(=O)C(F)(F)F)[C@H](C)C3)cc12 [Example 241-4] | < 100 | < 100
17 | Cc1ccc(-c2noc([C@H]3C[C@@H]3F)n2)cc1NC(=O)c1cnn2ccc(N3CCN(C(=O)C4CC4)[C@H](C)C3)cc12 [Example 241-5] | < 100 | < 100
18 | CC(=O)N1CCN(c2ccn3ncc(C(=O)Nc4cc(-c5noc([C@H]6C[C@@H]6F)n5)ccc4C)c3c2)CC1 [Example 241-6] | < 100 | < 100
19 | Cc1ccc(-c2noc([C@H]3C[C@@H]3F)n2)cc1NC(=O)c1cnn2ccc(N3CCN(C(=O)OC(C)(C)C)[C@H](C)C3)cc12 [Example 241-7] | 100 to 1000 | < 100

Row | Structure (SMILES) | IC50 [1] [nM] | EC50 (M-07e cells) [nM]
20 | Cc1ccc(-c2noc([C@H]3C[C@@H]3F)n2)cc1NC(=O)c1cnn2ccc(NCC3(CO)COC3)cc12 [Example 241-8] | < 100 | < 100
21 | Cc1ccc(-c2noc([C@H]3C[C@@H]3F)n2)cc1NC(=O)c1cnn2ccc(NCC3(C(=O)OC(C)(C)C)COC3)cc12 [Example 241-9] | 100 to 1000 | 100 to 1000
22 | Cc1ccc(-c2noc([C@H]3C[C@@H]3F)n2)cc1NC(=O)c1cnn2ccc(N3CC(C(=O)NC4CC4)C3)cc12 [Example 241-10] | < 100 | < 100
23 | Cc1ccc(-c2noc([C@H]3C[C@@H]3F)n2)cc1NC(=O)c1cnn2ccc(N3CC(C(=O)N4CC(F)(F)C4)C3)cc12 [Example 241-11] | < 100 | < 100
24 | Cc1ccc(-c2noc([C@H]3C[C@@H]3F)n2)cc1NC(=O)c1cnn2ccc(N3CC4(CN(C(=O)C5CC(F)(F)C5)C4)C3)cc12 [Example 241-12] | < 100 | < 100
25 | Cc1ccc(-c2noc([C@H]3C[C@@H]3F)n2)cc1NC(=O)c1cnn2ccc(N3CC(COCc4ccccc4)(C(=O)OCc4ccccc4)C3)cc12 [Example 241-13] | > 1000 | > 1000
26 | Cc1ccc(-c2noc([C@H]3C[C@@H]3F)n2)cc1NC(=O)c1cnn2ccc(NCC3(C(=O)O)COC3)cc12 [Example 241-14] | 100 to 1000 | > 1000
27 | Cc1ccc(-c2noc([C@H]3C[C@@H]3F)n2)cc1NC(=O)c1cnn2ccc(N3CC4(CN(C(=O)C(F)(F)F)C4)C3)cc12 [Example 241-15] | < 100 | < 100
28 | Cc1ccc(-c2noc([C@H]3C[C@@H]3F)n2)cc1NC(=O)c1cnn2ccc(N3CC(CO)(C(=O)O)C3)cc12 [Example 241-16] | 100 to 1000 | > 1000
29 | Cc1ccc(-c2noc([C@H]3C[C@@H]3F)n2)cc1NC(=O)c1cnn2ccc(N3CCOCC3)cc12 [Example 241] | < 100 | < 100
30 | Cc1ccc(-c2noc([C@H]3C[C@@H](OC(F)(F)F)C3)n2)cc1NC(=O)c1cnn2ccc(N3CC4(COC4)C3)cc12 [Example 243] | < 100 | < 100
31 | Cc1ccc(-c2noc([C@H]3C[C@@H](OC(F)(F)F)C3)n2)cc1NC(=O)c1cnn2ccc(N3CC4(CN(CC(F)(F)F)C4)C3)cc12 [Example 244] | < 100 | < 100
32 | Cc1ccc(-c2noc([C@H]3C[C@H](OC(F)(F)F)C3)n2)cc1NC(=O)c1cnn2ccc(N3CC4(COC4)C3)cc12 [Example 245] | < 100 | < 100
33 | Cc1ccc(-c2noc([C@H]3C[C@@H](OC(C)C)C3)n2)cc1NC(=O)c1cnn2ccc(N3CC4(CN(CC(F)(F)F)C4)C3)cc12 [Example 246] | 100 to 1000 | < 100
34 | Cc1ccc(-c2noc([C@H]3C[C@H](OC(F)F)C3)n2)cc1NC(=O)c1cnn2ccc(N3CC4(COC4)C3)cc12 [Example 247] | < 100 | < 100
35 | Cc1ccc(-c2noc([C@H]3C[C@@H](OC(F)F)C3)n2)cc1NC(=O)c1cnn2ccc(N3CC4(CCN(CC(F)F)C4)C3)cc12 [Example 248] | 100 to 1000 | < 100
36 | Cc1ccc(-c2noc(C34CC(F)(C3)C4)n2)cc1NC(=O)c1cnn2ccc(N3CC4(COC4)C3)cc12 [Example 249] | < 100 | < 100
37 | Cc1ccc(-c2noc([C@H]3C[C@@H](OC(F)F)C3(C)C)n2)cc1NC(=O)c1cnn2ccc(N3CC4(COC4)C3)cc12 [Example 250] | < 100 | 100 to 1000
38 | Cc1ccc(-c2noc([C@H]3C[C@@H](OC(F)(F)F)C3)n2)cc1NC(=O)c1cnn2ccc(N3CC4(CCN(CC(F)F)C4)C3)cc12 [Example 251] | 100 to 1000 | 100 to 1000

Reference: patent US20250059174A1, “Pharmaceutical Compounds and Compositions as C-Kit Kinase Inhibitors” (Enanta Pharmaceuticals, Inc., priority 2023, published 2025)
